The source of these data is US20230250123A1, “GUT MICROBIOTA BIOACTIVATED PDE4 INHIBITOR PRECURSORS” (Giiant Pharma Inc., priority 2020, published 2023).

Some results are limits rather than exact numbers.

The nature of series [1]: Negative control: incubation in mouse feces extract supernatant inactivated by boiling. The class given is in vitro ADME. To be noted: 24 hours, mouse feces supernatant boiled 10 minutes (no enzyme activities). The procedure: (§1) In vitro rate of glycoside prodrugs hydrolysis. The metabolic stability of prodrug candidates to release the parent PDE4 inhibitor could be assessed in vitro according, but not restricted, to the following protocol: feces were collected overnight on a mixture of dry and wet ice in a metabolic cage. Ten volumes (v/w; 30 mL) of 100 mM phosphate buffer (pH 6.5) were added to 3 g of freshly collected rodent feces. The mixture was homogenized with a Stomacher Circulator 400 (2 × 1 min-cycles at 225 rpm). The mixture was transferred to a 50 mL tubes, centrifuged at 10 000xg for 10 min (4° C.) and the supernatant was passed through a 0.45 µm-filter. In a 96 deep-well plate, 198 µL of feces supernatant were aliquoted in 2 wells per compound. Each compound, including positive control, was tested in duplicate. Then 2 µL of 10 mM stock solution of each test compound were spiked in individual wells (duplicate) at a final concentration of 100 µM and samples were sealed and mixed 30 sec at 1000 rpm using a vortexer. Samples were incubated at 37° C. for the desired time in the Thermomixer with constant agitation (300 rpm). At desired time-point, 25 µL of reaction mixture was added to 225 µL of ice-cold quenching solution (acetonitrile + 0.1% (v/v) formic acid) to stop the bacterial enzymatic activity. The quenched incubates were mixed and centrifuged 10 min at 21 000xg at 4° C. A real t0 (no metabolism, 100% total recovery of unchanged prodrug) was generated by adding 22.5 µL of feces supernatant to 225 µL of ice-cold quenching solution (acetonitrile + 0.1% (v/v) formic acid). Then 2.5 µL of 1 mM solution of each test compounds was added, sealed, mixed thoroughly and centrifuged 10 min at 21 000xg at 4° C. All samples, including analytical standards, were analyzed by LC-MS/MS to measure the concentration of the parent PDE4 inhibitor released and the concentration of the corresponding prodrug remaining. […]

Series [2] in a line: In vitro rate of glycoside prodrug hydrolysis in feces supernatant, mouse. The format is in vitro ADME. As to conditions: 100 µM, 37° C., pH 6.5, 24 hr. The procedure: (§2) In vitro rate of glycoside prodrugs hydrolysis. The metabolic stability of prodrug candidates to release the parent PDE4 inhibitor could be assessed in vitro according, but not restricted, to the following protocol: feces were collected overnight on a mixture of dry and wet ice in a metabolic cage. Ten volumes (v/w; 30 mL) of 100 mM phosphate buffer (pH 6.5) were added to 3 g of freshly collected rodent feces. The mixture was homogenized with a Stomacher Circulator 400 (2 × 1 min-cycles at 225 rpm). The mixture was transferred to a 50 mL tubes, centrifuged at 10 000xg for 10 min (4° C.) and the supernatant was passed through a 0.45 µm-filter. In a 96 deep-well plate, 198 µL of feces supernatant were aliquoted in 2 wells per compound. Each compound, including positive control, was tested in duplicate. Then 2 µL of 10 mM stock solution of each test compound were spiked in individual wells (duplicate) at a final concentration of 100 µM and samples were sealed and mixed 30 sec at 1000 rpm using a vortexer. Samples were incubated at 37° C. for the desired time in the Thermomixer with constant agitation (300 rpm). At desired time-point, 25 µL of reaction mixture was added to 225 µL of ice-cold quenching solution (acetonitrile + 0.1% (v/v) formic acid) to stop the bacterial enzymatic activity. The quenched incubates were mixed and centrifuged 10 min at 21 000xg at 4° C. A real t0 (no metabolism, 100% total recovery of unchanged prodrug) was generated by adding 22.5 µL of feces supernatant to 225 µL of ice-cold quenching solution (acetonitrile + 0.1% (v/v) formic acid). Then 2.5 µL of 1 mM solution of each test compounds was added, sealed, mixed thoroughly and centrifuged 10 min at 21 000xg at 4° C. All samples, including analytical standards, were analyzed by LC-MS/MS to measure the concentration of the parent PDE4 inhibitor released and the concentration of the corresponding prodrug remaining. A set criteria of 100% recovery is targeted where the summation of the % of prodrug remaining and the % of parent PDE4 inhibitor released should be 100% with an experimental error tolerance of ± 20%. When prodrugs represented by Formula (I) were incubated 24 hours under the conditions described above using mouse, rat and dog feces, the glycoside prodrugs were hydrolyzed to release the corresponding parent PDE4 inhibitor III (Table 3). As a negative control, when compound 4, 10 and 21 were incubated 24 hours under the conditions described above but in the absence of enzyme activities, using mouse feces extract supernatant inactivated by boiling the supernatant 10 minutes, 100% of the prodrugs were recovered unchanged.

Series [3] can be described thus: Bidirectional Caco-2 permeability assay. The class given is in vitro ADME. To be noted: human; Caco-2, 10 µM, apical pH 6.0 / basolateral pH 7.4, average of 2 determinations. The procedure: In vitro glycoside prodrug permeability assessment. The permeability of the glycoside prodrugs were measured using the bidirectional Caco-2 assay. Caco-2 cells were seeded onto permeable polycarbonate supports in 12-well Costar Transwell plates and allowed to grow and differentiate for 21-25 days. On day 24, culture medium (DMEM supplemented with 10% FBS, 1% non-essential amino acids and penicillin/streptomycin) was removed from both sides of the transwell inserts and cells were rinsed with warm HBSS. […] The buffer in the donor chamber (apical side for A-to-B assay, basolateral side for B-to-A assay) was removed and replaced with the working solution (10 µM test article in transport buffer). The plates were then placed at 37° C. under light agitation. At designated time points (30, 60 and 90 min); an aliquot of transport buffer from the receiver chamber was removed and replenished with fresh transport buffer. Samples were quenched with ice-cold CH3CN containing internal standard and then centrifuged to precipitate the protein. Resulting supernatants were further diluted with 50/50 ACN/H2O (H2O only for Atenolol) and submitted for LC/MS/MS analysis. […] Atenolol and propranolol were tested as low and […] permeability references. […] The apparent permeability (Papp, measured in cm/s) of a compound is determined according to the following formula: […]
Where dQ/dt is the net rate of appearance in the receiver compartment, A is the area of the Transwell measured in cm^2 (1.12 cm^2), C0 is the initial concentration of compound added to the donor chamber and 60 is the conversion factor for the minute to second.
Background: Caco-2 cells form a polarised layer with tight junctions and transporters.

Series [4] in a line: In vitro rate of glycoside prodrug hydrolysis in feces supernatant, rat. The class given is in vitro ADME. To be noted: 100 µM, 37° C., pH 6.5, 24 hr. As to the method:
as §2

Series [5] relates to β-D-glucuronidase. Description: Positive control: incubation with β-D-glucuronidase in phosphate buffer. As to conditions: β-D-glucuronidase 50U/mL, phosphate buffer pH 6.5, 37° C., 24 hours. The class given is in vitro ADME.
Series [6] has as its system type-IV cAMP-specific phosphodiesterases. Description: Inhibitory potency against PDE4 isozymes (isozyme not given). The format is biochemical. To be noted: sample contaminated with 0.17% of IIIa, which accounts for 100% of the potency recorded; read-out: IC50 (PDE4, isozyme not stated).
Series [7] in a line: In vitro rate of glycoside prodrug hydrolysis in feces supernatant, dog. The format is in vitro ADME. As to conditions: 100 µM, 37° C., pH 6.5, 24 hr. The procedure:
as §1, with “At desired time-point, 25 µL of reaction mixture was added to 225 µL of ice-cold quenching solution (acetonitrile + 0.1% (v/v) formic acid) to stop the bacterial enzymatic activity. The quenched incubates were mixed and centrifuged 10 min at 21 000xg at 4° C. A real t0 (no metabolism, 100% total recovery of unchanged prodrug) was generated by adding 22.5 µL of feces supernatant to 225 µL of ice-cold quenching solution (acetonitrile + 0.1% (v/v) formic acid). Then 2.5 µL of 1 mM solution of each test compounds was added, sealed, mixed thoroughly and centrifuged 10 min at 21 000xg at 4° C.” left out

The test system of series [8] is LPS-induced TNFα in human whole blood. Description: LPS-induced TNFα assay in human whole blood. The class given is cell-based. To be noted: human whole blood from 12 healthy volunteers, LPS 1 µg/mL, 24 h; read-out: average IC50, TNFα inhibition.
Experimental: TNFα inhibition assay protocol. Potency of PDE4 inhibitors in the LPS-induced TNFα assay in human whole blood was measured using the following protocol: fresh blood is collected in heparinized tubes by venipuncture from healthy human volunteers (male and female). These subjects should not have apparent inflammatory conditions, no symptoms of bacterial/viral infection, no fever and should not take any NSAIDs for at least 1 week prior to blood collection. Blood from each donor was dispensed in a 96-deep well plate, 500 µL per well. Blood was pre-incubated with either 2 µL of vehicle (DMSO) or test compound at 37° C. /5% CO2 for 15 min. […] Duplicate independent incubations were performed for each inhibitor concentration with blood from each donor. Appropriate PBS controls (no LPS) were used as blanks (4 wells) while blood samples stimulated with LPS controls (no PDE4 inhibitor) served as positive controls (4 wells). […] Plasma TNFα was quantified by ELISA (Invitrogen, Frederick, MD, USA) following the manufacturer’s instructions. […] Assay plates were read on an Infinite F200 PRO-Tecan reader at 450 nm. Absorbance values were converted to % inhibition based on positive and negative control values on each plate, and resulting % inhibition data were fit to a four-parameter logistic by nonlinear regression using GraphPad Prism (version 6.00, GraphPad Software, Inc., La Jolla, CA, USA). […]
Series [9] deals with PDE4D2 (Homo sapiens, UniProt Q08499). Description: Inhibitory potency against PDE4 isozymes (FAM-cAMP fluorescence polarization), PDE4D2. In general terms: In fluorescence polarisation assays a small probe gives low polarisation when free and higher when bound to something large.
The target of series [10] is PDE4B1 (Homo sapiens, UniProt Q07343). Description: Inhibitory potency against PDE4 isozymes (FAM-cAMP fluorescence polarization), PDE4B1.
Series [11] deals with PDE4A1A (Homo sapiens, UniProt P27815). Description: Inhibitory potency against PDE4 isozymes (FAM-cAMP fluorescence polarization), PDE4A1A.
PDE4A1A, sequence (P27815 1-647 isoform P27815-4): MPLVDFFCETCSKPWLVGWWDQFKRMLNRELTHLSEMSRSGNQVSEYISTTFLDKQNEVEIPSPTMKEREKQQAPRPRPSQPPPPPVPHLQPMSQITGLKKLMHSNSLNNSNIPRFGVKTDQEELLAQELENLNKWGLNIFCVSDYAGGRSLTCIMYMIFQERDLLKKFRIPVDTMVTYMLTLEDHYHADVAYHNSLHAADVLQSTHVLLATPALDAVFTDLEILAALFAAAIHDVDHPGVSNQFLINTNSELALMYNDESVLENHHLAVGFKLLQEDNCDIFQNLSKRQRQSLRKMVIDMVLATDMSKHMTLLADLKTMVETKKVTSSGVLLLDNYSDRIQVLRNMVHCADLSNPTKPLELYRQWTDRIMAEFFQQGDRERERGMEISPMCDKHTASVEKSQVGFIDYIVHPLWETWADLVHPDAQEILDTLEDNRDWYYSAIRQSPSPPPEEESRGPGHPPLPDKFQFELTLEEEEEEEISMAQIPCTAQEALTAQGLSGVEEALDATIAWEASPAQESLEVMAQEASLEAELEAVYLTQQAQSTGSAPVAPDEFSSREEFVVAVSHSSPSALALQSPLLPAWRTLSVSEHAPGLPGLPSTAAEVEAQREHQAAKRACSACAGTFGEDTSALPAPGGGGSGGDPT

PDE4D2, sequence (Q08499 303-809 limits assumed): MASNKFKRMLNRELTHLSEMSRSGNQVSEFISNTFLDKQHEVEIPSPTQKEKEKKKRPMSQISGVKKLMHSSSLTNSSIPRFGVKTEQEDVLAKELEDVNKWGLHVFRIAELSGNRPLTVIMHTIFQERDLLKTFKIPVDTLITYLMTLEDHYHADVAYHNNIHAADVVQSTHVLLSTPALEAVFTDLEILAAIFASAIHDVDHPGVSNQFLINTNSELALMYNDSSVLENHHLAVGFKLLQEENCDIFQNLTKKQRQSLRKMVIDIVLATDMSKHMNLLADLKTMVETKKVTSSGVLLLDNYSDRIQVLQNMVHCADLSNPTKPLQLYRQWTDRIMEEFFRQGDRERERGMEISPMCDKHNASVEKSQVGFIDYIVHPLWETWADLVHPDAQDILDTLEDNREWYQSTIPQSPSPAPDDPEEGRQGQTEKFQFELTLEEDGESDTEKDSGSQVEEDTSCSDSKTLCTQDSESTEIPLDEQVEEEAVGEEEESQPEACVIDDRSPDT
PDE4B1, sequence (Q07343 whole entry, species assumed): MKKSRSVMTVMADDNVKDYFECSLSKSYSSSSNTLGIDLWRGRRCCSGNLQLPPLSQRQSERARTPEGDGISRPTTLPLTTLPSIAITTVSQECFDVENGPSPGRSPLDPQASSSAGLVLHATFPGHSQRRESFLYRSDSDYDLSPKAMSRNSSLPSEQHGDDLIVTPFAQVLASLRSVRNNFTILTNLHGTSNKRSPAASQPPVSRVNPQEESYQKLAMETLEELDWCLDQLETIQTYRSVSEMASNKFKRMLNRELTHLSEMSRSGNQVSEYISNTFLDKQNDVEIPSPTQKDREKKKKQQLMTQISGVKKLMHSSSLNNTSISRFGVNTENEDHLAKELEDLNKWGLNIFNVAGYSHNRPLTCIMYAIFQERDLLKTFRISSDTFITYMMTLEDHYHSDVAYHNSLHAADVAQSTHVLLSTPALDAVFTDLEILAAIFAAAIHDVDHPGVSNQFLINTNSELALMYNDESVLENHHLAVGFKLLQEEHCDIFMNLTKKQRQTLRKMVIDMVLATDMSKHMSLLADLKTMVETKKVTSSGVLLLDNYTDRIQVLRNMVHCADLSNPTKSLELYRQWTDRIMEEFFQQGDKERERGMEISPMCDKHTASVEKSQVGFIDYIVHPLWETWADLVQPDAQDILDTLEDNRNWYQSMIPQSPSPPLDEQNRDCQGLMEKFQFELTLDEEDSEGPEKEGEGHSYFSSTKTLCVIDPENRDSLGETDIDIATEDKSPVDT

Turning to `CC(C)(O)c1ccc([C@@H](Cc2ccc(OC3O[C@H](CO)[C@@H](O)[C@H](O)[C@H]3N)nc2)c2ccc(OC(F)F)c(OC3CC3)c2)cn1` (mixture of isomers) [Compound 21, (2R,3S,4R,5R)-5-amino-6-((5-((S)-2-(3-cyclopropoxy-4-(difluoromethoxy)phenyl)-2-(6-(2-hydroxypropan-2-yl)pyridin-3-yl)ethyl)pyridin-2-yl)oxy)-2-(hydroxymethyl)tetrahydro-2H-pyran-3,4-diol], the prodrug recovered unchanged in [1] was found to be 100%.

On to `CC(C)(O)c1ccc([C@@H](Cc2ccc(O[C@@H]3O[C@H](CO)[C@@H](O)[C@H](O)[C@H]3O)nc2)c2ccc(OC(F)F)c(OC3CC3)c2)cn1` [Compound 4, (2S,3R,4S,5S,6R)-2-((5-((S)-2-(3-cyclopropoxy-4-(difluoromethoxy)phenyl)-2-(6-(2-hydroxypropan-2-yl)pyridin-3-yl)ethyl)pyridin-2-yl)oxy)-6-(hydroxymethyl)tetrahydro-2H-pyran-3,4,5-triol], for which the prodrug recovered unchanged in series [1] was found to be 100%. The “Prodrug Remaining @ 24 hr (%)” value in series [2] stood at 0.1%; in series [4] it was 0.0%. In addition, in [3], the Papp A→B at 10 µM is 0.08 ×10⁻⁶ cm/s.

In the case of `CC(=O)OC[C@H]1O[C@@H](Oc2ccc(C[C@H](c3ccc(C(C)(C)O)nc3)c3ccc(OC(F)F)c(OC4CC4)c3)cn2)[C@H](O)[C@@H](OC(C)=O)[C@@H]1OC(C)=O` [Compound 5, (2R,3R,4R,5R,6S)-2-(acetoxymethyl)-6-((5-((S)-2-(3-cyclopropoxy-4-(difluoromethoxy)phenyl)-2-(6-(2-hydroxypropan-2-yl)pyridin-3-yl)ethyl)pyridin-2-yl)oxy)-5-hydroxytetrahydro-2H-pyran-3,4-diyl diacetate], the “Prodrug Remaining @ 24 hr (%)” value in series [2] and in [4] was 0.0% throughout. In series [3], this molecule returned a Papp A→B at 10 µM of 0.9 ×10⁻⁶ cm/s.

Take `CC(C)(O)c1ccc([C@@H](Cc2ccc(O[C@@H]3O[C@H](C(=O)[O-])[C@@H](O)[C@H](O)[C@H]3O)nc2)c2ccc(OC(F)F)c(OC3CC3)c2)cn1.[Li+]` [Compound 9, lithium (2S,3S,4S,5R,6S)-6-((5-((S)-2-(3-cyclopropoxy-4-(difluoromethoxy)phenyl)-2-(6-(2-hydroxypropan-2-yl)pyridin-3-yl)ethyl)pyridin-2-yl)oxy)-3,4,5-trihydroxytetrahydro-2H-pyran-2-carboxylate]: the results for the “Prodrug Remaining @ 24 hr (%)” value in [2] and in series [4] were 3.3% and 4.2%, respectively. Further, in series [5], the prodrug recovered unchanged is 2%.

With `N[C@H]1[C@H](Oc2ccc(C[C@@H](c3ccc(OC(F)F)c(OC4CC4)c3)c3cnc(C(O)(C(F)(F)F)C(F)(F)F)s3)cn2)O[C@H](CO)[C@@H](O)[C@@H]1O` [Compound 22, (2R,3S,4R,5R,6S)-5-amino-6-((5-((S)-2-(3-cyclopropoxy-4-(difluoromethoxy)phenyl)-2-(2-(1,1,1,3,3,3-hexafluoro-2-hydroxypropan-2-yl)thiazol-5-yl)ethyl)pyridin-2-yl)oxy)-2-(hydroxymethyl)tetrahydro-2H-pyran-3,4-diol], in series [6], the IC50 is greater than 100 nM. The “Prodrug Remaining @ 24 hr (%)” value in series [2] is 62%. Moreover, the apical-to-basolateral permeability (Papp A→B) at 10 µM in series [3] amounted to 0.2 ×10⁻⁶ cm/s.

With `CC(C)(O)c1ccc([C@@H](Cc2ccc(O[C@@H]3O[C@H](CO)[C@@H](O)[C@H](O)[C@H]3N)nc2)c2ccc(OC(F)F)c(OC3CC3)c2)cn1` [Compound 23, (2R,3S,4R,5R,6S)-5-amino-6-((5-((S)-2-(3-cyclopropoxy-4-(difluoromethoxy)phenyl)-2-(6-(2-hydroxypropan-2-yl)pyridin-3-yl)ethyl)pyridin-2-yl)oxy)-2-(hydroxymethyl)tetrahydro-2 H-pyran-3,4-diol], the results for the “Prodrug Remaining @ 24 hr (%)” value in series [7] and in series [2] were 75% and 65%, respectively.

For `C[N+](C)(C)[C@H]1[C@H](Oc2ccc(C[C@@H](c3ccc(OC(F)F)c(OC4CC4)c3)c3cnc(C(O)(C(F)(F)F)C(F)(F)F)s3)cn2)O[C@H](CO)[C@@H](O)[C@@H]1O.[I-]` [Compound 26, (2S,3R,4R,5S,6R)-2-((5-((S)-2-(3-cyclopropoxy-4-(difluoromethoxy)phenyl)-2-(2-(1,1,1,3,3,3-hexafluoro-2-hydroxypropan-2-yl)thiazol-5-yl)ethyl)pyridin-2-yl)oxy)-4,5-dihydroxy-6-(hydroxymethyl)-N,N,N-trimethyltetrahydro-2H-pyran-3-aminium iodide], in series [2], the “Prodrug Remaining @ 24 hr (%)” value is 96%. Further, in series [3], the Papp A→B at 10 µM stood at 2.8 ×10⁻⁶ cm/s.

`CC(C)(O)c1ccc([C@@H](Cc2ccc(O[C@@H]3O[C@H](CO)[C@@H](O[C@@H]4O[C@H](CO)[C@@H](O)[C@H](O)[C@H]4O)[C@H](O)[C@H]3O)nc2)c2ccc(OC(F)F)c(OC3CC3)c2)cn1` [Compound 31, (2S,3R,4S,5S,6R)-2-(((2R,3S,4R,5R,6S)-6-((5-((S)-2-(3-cyclopropoxy-4-(difluoromethoxy)phenyl)-2-(6-(2-hydroxypropan-2-yl)pyridin-3-yl)ethyl)pyridin-2-yl)oxy)-4,5-dihydroxy-2-(hydroxymethyl)tetrahydro-2H-pyran-3-yl)oxy)-6-(hydroxymethyl)tetrahydro-2H-pyran-3,4,5-triol]: the Papp A→B at 10 µM in series [3] came out at 0.02 ×10⁻⁶ cm/s. Also, the “Prodrug Remaining @ 24 hr (%)” value in series [4] was 0.6%.

On to `O=c1ccc(C[C@@H](c2ccc(OC(F)F)c(OC3CC3)c2)c2cnc(C(O)(C(F)(F)F)C(F)(F)F)s2)c[nH]1` [IIIa, (S)-5-(2-(3-cyclopropoxy-4-(difluoromethoxy)phenyl)-2-(2-(1,1,1,3,3,3-hexafluoro-2-hydroxypropan-2-yl)thiazol-5-yl)ethyl)pyridin-2(1H)-one], for which the IC50 is less than 50 nM in series [8], less than 10 nM in series [9], less than 10 nM in [10] and less than 10 nM in series [11]. The same molecule gave a Papp A→B at 10 µM in series [3] of 19.1 ×10⁻⁶ cm/s.

A word on the Papp A→B: it is the apparent permeability from the apical to the basolateral side of a cell layer. A higher Papp A→B goes with fast passage. Usually IC50 stands for the point on the concentration scale where inhibition reaches its midpoint.
